Measured values as given in patent US20160340652A1, “CULTURE MEDIUM FOR STEM CELL DIFFERENTIATION” (The USA, as represented by the Secretary, Dept. of Health …, priority 2013, published 2016).

Legend:
hPSCs = assay: Cardiomyocyte differentiation in monolayer in E8 basal medium, CTNT/NKX2.5 flow cytometry and staining; format: cell-based, human; settings: for efficiencies of cardiac differentiation: different WNT inhibitors in the presence of heparin, CTNT FACS, 10 days
From the text: (§1) Cardiomyocyte differentiation in monolayer: When hPSCs had grown to 80-90% confluent, 2-3 days after plating, the medium was changed from E8 to differentiation basal medium, which contains E8 basal medium (DMEM F-12, L-ascorbic acid, Selenium, Transferrin, and NaHCO3), 1× Chemically Defined Lipid Concentrate (100×, Life Technologies, 11905-031; a commercially-available lipid mixture of Arachidonic Acid, Cholesterol, DL-α-Tocopherol Acetate, Ethyl Alcohol 100%, Linoleic Acid, Linolenic Acid, Myristic Acid, Oleic Acid, Palmitic Acid, Palmitoleic Acid, Pluronic F-68, Stearic Acid, Tween 80™) and 1× Pen Strep (Life Technologies, 15140-122). That day was defined as day 0. CHIR99021 (5 uM, Tocris, 4423) was added into differentiation basal medium at day 0 for 24 hrs. IWP2 (3 uM, Tocris, 3533) was added from day 2 to day 5. Heparin was added into the medium at indicated dosages and timeline. Insulin (20 ug/ml, Sigma, 19278) was added into differentiation basal medium to maintain cardiomyocytes from day 7 onward. The medium was changed daily until day 7, and then changed every 2-3 days from day 7 onward. The growth factors, inhibitors, and enzymes used in culture were: Activin A (10 ng/ml, R&D, 338-AC/CF), BMP4 (10 ng/ml, R&D, 314-BP/CF), FGF2 (100 ng/ml, Peprotech, 100-18B), TGFβ1 (1.74 ng/ml, R&D, 240-B/CF), Dorsomorphin (3 μM, Stemgent, 04-0024), LDN-193189 (0.1 μM, Stemgent, 04-0074), PD0325901 (1 μM, Stemgent, 04-0008), SB431542 (3 μM, Selleckchem, s1067), Heparin (Sigma, H3149), Heparinase I (New England Biolabs, P0735S).
Immunofluorecence staining: Cells cultured in monolayer were fixed in 2% PFA for 10 minutes at room temperature, washed with PBS and permeabilized with 0.2% Triton X-100/PBS for 3 minutes. After successive washes in PBS, the cells were blocked in 10 mg/ml BSA for 30 minutes and incubated with primary antibody for 1 hour at room temperature. Cells were then washed 3 times with PBS for 5 minutes and incubated with secondary antibodies (Alexa 488 or 594-conjugated) for 1 hour. DAPI was applied for nuclei staining. The following primary antibodies were used for immunofluorescence: alpha actinin (mouse, 1:1000, A7811, Sigma), CTNI (cardiac troponin I, rabbit, 1:200, sc-15368, Santa Cruz), CTNT (cardiac troponin T, mouse, CT3, 1:1000, DSHB), Desmin (mouse, 1:100, M0760, DaKo) NKX2.5 (rabbit, ab35842; 1:200, Abcam).
Flow cytometry assay: Cells differentiated for 10 days in monolayer were dissociated with TrypLE (Invitrogen) for 5 minutes. Single cells were washed off and suspended by DMEM/10% FBS followed by centrifugation. The pellets were washed by PBS once and fixed by 2% PFA for 5 minutes. After washing with PBS and centrifuging, permeabilization was performed by 0.3% Triton X-100 for 3 minutes. The cells were centrifuged and re-suspended with 1% BSA to block unspecific binding of antibody, followed by incubation with primary antibodies (diluted in 1% BSA) for 1 hour. After washed, the cells were incubated with second antibodies conjugated with FITC or PE (Invitrogen, 1:1000 diluted in PBS) for 30 minutes. The cells were washed once and suspended in PBS for the flow cytometry assay.
The inventors developed an E8 basal medium (consisting of E8 media without NaHCO3, insulin, bFGF, or TGFβ; i.e., containing DMEM/F-12, L-ascorbic acid, selenium, and transferrin). This E8 basal medium was used in a differentiation protocol for human H1 ESCs with initial WNT activation (using GSK3β inhibitor, CHIR99021) applied to the cells in culture at days 0-1 (i.e., days following initiation of the stem cell differentiation protocol; day 0 is the day on which the stem cell differentiation protocol begins when the previously plated cells reach at least 75% confluence and the specific cell culture media are applied to the cells to being the cardiomyocyte differentiation protocol, day 1 is the next day in which specific media may be applied to the cells, and day 2 is the following day, etc.). […]

[1] = tested on: Brachyury (T), Wnt3A, Axin2, KDR, GATA4; assay: Real-time PCR of stage-specific marker expression during cardiac differentiation; format: cell-based, human
Procedure: Real-time PCR: RNA was purified using TRI Reagent™ Solution according to Ambion's protocol. Residual DNA was removed using the TURBO DNA-Free™ kit. Reverse transcription was carried out with Maxima H Minus Reverse Transcriptase (Thermo Scientific) primed with Poly N15-mer (Eurofins) with the recommended protocol. Prior to PCR, RNA template was removed with addition of Ambion Ribonuclease H from E. coli. Real-time PCR was performed on the BIO-RAD CFX96 using SsoAdvanced™ Universal SYBR® Green Supermix. PCR primers were listed in the supplementary table.
To investigate the function of heparin in mesoderm determination and cardiac specification, stage-specific marker expression levels were measured by qPCR (FIG. 33).

H1 ESCs = assay: Live cell number yield after 10 days differentiation; format: cell-based, human; settings: WNT inhibitor in the presence of heparin
From the text: as §1, with “The growth factors, inhibitors, and enzymes used in culture were: Activin A (10 ng/ml, R&D, 338-AC/CF), BMP4 (10 ng/ml, R&D, 314-BP/CF), FGF2 (100 ng/ml, Peprotech, 100-18B), TGFβ1 (1.74 ng/ml, R&D, 240-B/CF), Dorsomorphin (3 μM, Stemgent, 04-0024), LDN-193189 (0.1 μM, Stemgent, 04-0074), PD0325901 (1 μM, Stemgent, 04-0008), SB431542 (3 μM, Selleckchem, s1067), Heparin (Sigma, H3149), Heparinase I (New England Biolabs, P0735S).” left out

Human ESCs = assay: High density survival screening of human ESCs in E8 medium with additives (Alkaline Phosphatase staining); format: cell-based; settings: for cell death and differentiation at high density: E8 medium supplemented, 5 days after initial confluence; for pluripotent stem cell survival and differentiation efficiency: E8 medium, cells near confluence, additives added, AP staining
Procedure: H1 hESCs were cultured in E8 media to 60% confluence, and then continually cultured for 2 days in E8 media with indiated additives. Alkaline Phosphatase (AP) staining was performed to show the pluripotent stem cells. Dark staining represents the survival of hESC colonies.
Additives are indicated (glycogen, glycogen+lipid+heparin). H1 and H9 hESCs were cultured in E8 media to 60% confluence, and then continually cultured for 2 days in E8 media with indicated additives. Two parallel experiments were performed in incubators in either good or bad condition.
FIGS. 6a and 6b show cell proliferation and spontaneous differentiation at high density with trehalose and CM-dextran. In FIG. 6a, HI hESCs were cultured in E8 media to >90 confluence, and then continually cultured for 5 days in E8 media with indicated additives. Phase contrast images show the survival rates of the cells. Note that most of the cells in control conditions died and few cells regrew, while Trehalose and CM-Dextran treated cells survived in high confluence but some of them started to differentiate. In FIG. 6b, qPCR of pluripotent and differentiated genes expression is shown for the samples in FIG. 6a.
First, initial screening assays were carried out with different additives. In this assay, human embryonic stem cells (ESCs) are grown to near confluence in E8 medium. The additives in the set of experiments described herein are selected from trehalose, CM-Dextran, lipid mix, heparin, glycogen and albumin. Cells that were untreated served as the controls. The protocol is set forth below:
1. Human ESCs were expanded with EDTA dissociation at 1:6 ratio.
2. E8 medium was changed every day.
3. After 2-3 days, when cell density reached around 70-80% confluency.
4. Change medium, and different treatments were applied to the cells in addition to fresh E8 every day.
5. Cells in E8 started to die 1-2 days after they reached 100% confluency.
6. Plates were stained with Alkaline Phosphatase staining (APS) kit (Vector Lab) to determine pluripotency maintenance. After a few days, the plates are stained with Alkaline Phosphatase Staining (APS). The cell viability reagent PrestoBlue can also be used to measure live cells. […]

[2] = tested on: cardiomyocyte differentiation; assay: Cell death/survival during cardiomyocyte differentiation in supplemented E8 medium (Test 1 and Test 3); format: cell-based, human; settings: Test 1 and Test 3, cell survival at day 3
From the text: Cell survival at day 3 is shown.

NKX2-5, TBX5 and TNNT2 = assay: qPCR of cardiac markers after Test 3 protocol differentiation; format: cell-based, human
Procedure: Expression of Nkx.2, TBX5 and cTnT are shown as determined by qPCR. qPCR was performed assess relative mRNA expression of cardiac markers for cells following Test3 protocol differentiation.
Gene expression during differentiation was examined, and it was shown that the new factors affected specific gene expression during differentiation.

Cc1ccc2nc(NC(=O)CSc3nc4c(c(=O)n3-c3ccccc3)SCC4)sc2c1 [IWP2]
cardiomyocyte purity at day 10 (hPSCs; H1 ESCs, CHIR99021 days 0-1, IWP2 days 2-5, no heparin, no albumin or B27): ≤ 50% | efficiencies of cardiac differentiation (hPSCs): comparable efficiencies of cardiac differentiation | cardiac differentiation (CTNT and NKX2.5 staining) (hPSCs; increasing IWP2 dosage, without heparin): did not significantly enhance cardiac differentiation | Axin2 expression at day 5 ([1]; all 5 hPSC lines): inhibited | expression of cardiac progenitor marker GATA4 ([1]; qPCR, day 5, 7 different human PSC lines): promoted

O=C(Nc1cccc2cccnc12)c1ccc(N2C(=O)[C@@H]3[C@H](C2=O)[C@@H]2C=C[C@H]3C2)cc1 [IWR1]
efficiencies of cardiac differentiation (hPSCs): comparable efficiencies of cardiac differentiation | cell death and cardiomyocyte yield (H1 ESCs): caused more cell death and yielded fewer cardiomyocytes

Oc1nc(-c2ccc(C(F)(F)F)cc2)nc2c1CSCC2 [XAV939]
efficiencies of cardiac differentiation (hPSCs): comparable efficiencies of cardiac differentiation

OC[C@H]1O[C@H](O[C@H]2O[C@H](CO)[C@@H](O)[C@H](O)[C@H]2O)[C@H](O)[C@@H](O)[C@@H]1O [trehalose, Trehalose]
cell death and differentiation at high density (Human ESCs): little cell death, and the cells differentiated | pluripotent stem cell survival and differentiation efficiency (Human ESCs): enhanced pluripotent stem cell survival and differentiation efficiency | cell death during differentiation [2]: suppressed cell death during differentiation | cardiomyocyte differentiation by mRNA expression of NKX2-5, TBX5 and TNNT2 (NKX2-5, TBX5 and TNNT2): promoted cardiomyocyte differentiation

CM-dextran
cell death and differentiation at high density (Human ESCs): little cell death, and the cells differentiated | pluripotent stem cell survival and differentiation efficiency (Human ESCs): enhanced pluripotent stem cell survival and differentiation efficiency | cell death during differentiation [2]: suppressed cell death during differentiation | cardiomyocyte differentiation by mRNA expression of NKX2-5, TBX5 and TNNT2 (NKX2-5, TBX5 and TNNT2): promoted cardiomyocyte differentiation

B1: heparinase I: bacteroides enzyme that selectively cleaves the glycosidic linkage between hexosamines and uronic acids in heparin (protein, UniProt Q05819 22-384, looked up)
Heparin lyase I: QQKKSGNIPYRVNVQADSAKQKAIIDNKWVAVGINKPYALQYDDKLRFNGKPSYRFELKAEDNSLEGYAAGETKGRTELSYSYATTNDFKKFPPSVYQNAQKLKTVYHYGKGICEQGSSRSYTFSVYIPSSFPDNATTIFAQWHGAPSRTLVATPEGEIKTLSIEEFLALYDRMIFKKNIAHDKVEKKDKDGKITYVAGKPNGWKVEQGGYPTLAFGFSKGYFYIKANSDRQWLTDKADRNNANPENSEVMKPYSSEYKTSTIAYKMPFAQFPKDCWITFDVAIDWTKYGKEANTILKPGKLDVMMTYTKNKKPQKAHIVNQQEILIGRNDDDGYYFKFGIYRVGNSTVPVTYNLSGYSETAR
effect of heparin in the promotion of cardiac differentiation (hPSCs; co-treatment with heparinase I and heparin): dramatically blocked | cardiac cell differentiation seen with IWP2 treatment (hPSCs; heparinase I with IWP2): significantly suppressed
